Test results reported in patent publication US20210330756A1, “Acetylation of Miro1” (University of South Carolina, priority 2020, published 2021).

Tested on: axonal mitochondrial transport in DRG neurons
Assay: FRAP of Mito-GFP in distal axons of DRG neurons
Format: cell-based, rat
Experimental: MAG or Aggrecan exposures were performed as bath application or on coated substrates. For bath application, dissociated DRGs were cultured for 48 h and treated with 25 μg/ml of MAG-Fc (R&D Systems; 538-MG), 25 μg/ml Fc control (R&D Systems; 110-HG), or 10 μg/ml of Aggrecan (Sigma-Aldrich; A1960) for 4 h. Cultures were pretreated with either Ca^2+ chelator BAPTA-AM (3 μM; Sigma-Aldrich; A1076), ROCK inhibitor Y27632 (10 μM; Sigma-Aldrich; SCM075), HDAC6 inhibitor TubA (10 μM; R&D Systems; 6270), Thapsigargin (1 μM; Sigma-Aldrich; T9033), Rho Activator II (1 μg/ml; Cytoskeleton; CNO3), or equivalent volume DMSO 30 min before MAG-Fc, Aggrecan, or controls. For substrate-bound experiments, adult DRGs were cultured on glass bottom dishes (Greiner) that were coated with 25 μg/ml Aggrecan in addition to the laminin/poly-D-lysine substrate.
Mito-KR- and Mito-GFP-expressing DRG neurons were used for FRAP analyses at 48-72 h after transfection. To evaluate mitochondrial motility in Mito-KR-expressing neurons, Mito-KR signals were photobleached using continual exposure to an argon laser set at 594 nm for 30 s (100% laser power) The bleached ROI was then monitored for recovery using an argon laser set at 580 nm every 10 s over 16 min (13% laser power). For FRAP analyses with Mito-GFP, GFP signals were photobleached in a 50 μm ROI using an argon laser set at 488 nm every 10 s for 16 min (70% laser power). The same excitation was used for post-bleach imaging to assess recovery every 10 s for 16 min. For axon shaft FRAP experiments in Mito-GFP-expressing neurons, ROIs of ˜50 μm in length (without branches) were imaged >100 μm proximal to the growth cone. Prebleach, bleach, and post-bleach sequences were the same as for Mito-GFP above. In all cases, neurons were imaged over 40 s or more to acquire baseline Mito-KR or Mito-GFP signals before photobleaching using an argon laser (580 nm at 13% power for Mito-KR and 488 nm at 31% power for Mito-GFP).
Vesicle trafficking was quantified using differential ImageJ Difference Tracker Plug-in (Andrews et al., 2010). 50-80-μm long unbranched axon segments at approximately the mid-region between growth cone and cell body were analyzed. Kymographs were generated using ImageJ Kymograph Plug-in. For analyses of axon retraction in the CALI experiment, the distance from the distal tip of the growth cone in the pre-CALI image sequence was used as the baseline (t=1 min). The distance between the growth tip at end of the post-CALI sequence and the pre-CALI baseline was measured using LAS-X software. Movement of ≥0.5 μm toward the axon shaft was counted as retracted. Fluorescence emission of the Mito-KR post-CALI was analyzed using ImageJ. For normalizing intensities across FRAP image sets, fluorescence intensity at each time point was scaled using the LAS-X FRAP module so that the residual fluorescence signal at t=0 min (post-bleach) was set at 0 and the prebleach intensity was set at 100% for each bleached ROI. For axon shaft FRAP analyses, each 50-μm bleached ROI was divided into […], and the fluorescence intensity recovery was measured as described above. EMs at 1,900× and 4,800× magnification across the crosssectional surface of each sciatic nerve were used for in vivo analyses of mitochondrial content. A minimum of 75 unmyelinated axons was analyzed for each nerve. All unmyelinated axons from each analyzed image were included for quantitative studies. The total number of mitochondria was determined in each unmyelinated axon in the field and was divided by the total number of unmyelinated axons for all subjects. […] was determined by changes in JC-1 fluorescence. JC-1 exists either as a green fluorescent monomer at depolarized membrane potentials or as an orange-red fluorescent aggregate at hyperpolarized membrane potentials. […]

| Structure (SMILES) | Mito-GFP recovery for thapsigargin-treated cultures, Myc-Miro1K105Q-expressing neurons (1 μM thapsigargin + 10 μM TubA) | Mito-GFP recovery for thapsigargin-treated cultures, Myc-Miro1K629Q-expressing neurons (1 μM thapsigargin + 10 μM TubA) | Mito-GFP recovery in DRGs transfected with WT, K40Q or K40A α-tubulin (10 μM TubA vs DMSO, 960 s after bleach) | mitochondrial transport with combined 10 μM TubA, 3 μM BAPTA-AM and ROCK inhibitor vs each alone (MAG-Fc, Mito-GFP FRAP) | effect on Rho activator-dependent decrease in mitochondrial transport (Rho-Activator + 10 μM TubA) | effect on aggrecan-dependent decrease in Mito-GFP recovery (aggrecan 10 μg/ml, TubA 10 μM or Y27632 10 μM) | effect on MAG-Fc-dependent decrease in Mito-GFP recovery / mitochondrial transport (pretreatment: TubA 10 μM, Y27632 10 μM or BAPTA-AM 3 μM, 960 s after bleach) | effect on thapsigargin-dependent decrease in mitochondrial transport (thapsigargin + 10 μM TubA) | mitochondrial transport in DRG axons (Mito-GFP FRAP) (1 μM thapsigargin) |
| --- | --- | --- | --- | --- | --- | --- | --- | --- | --- |
| CN1CCc2c(c3ccccc3n2Cc2ccc(C(=O)NO)cc2)C1 [TubA, tubastatin] | only a modest response to TubA treatment | significantly increased by TubA treatment | significantly increases Mito-GFP recovery in all three conditions | did not increase mitochondrial transport above the results seen | prevented by treatment with TubA | prevented by treatment with TubA | prevented by TubA pretreatment | prevented by inhibition of HDAC6 |  |
| C/C=C(/C)C(=O)O[C@H]1C(C)=C2[C@H]([C@@H]1OC(=O)CCCCCCC)[C@@](C)(OC(C)=O)C[C@H](OC(=O)CCC)[C@@]1(O)[C@H]2OC(=O)[C@@]1(C)O [thapsigargin] |  |  |  |  |  |  |  |  | similarly decreased mitochondrial transport |
